Laboratory results taken from patent US12428455B2, “Dominant negative CEBPB and CEBPD proteins and methods of use for decreasing viability of neoplastic cells” (The Trustees of Columbia University in the City of New York, priority 2018, dated 2025).
No end group written: not given here.

Tests used:
human astrocytes = assay: Morphology after peptide treatment, astrocytes; assay type: cell-based; details: 6 days, 0 μM or 50 μM; stock without BSA
Procedure: Replicate cultures of human astrocytes were exposed to CP-DN-CEBPB or CP-DN-CEBPD for 6 days at final concentrations of 0 μM or 50 μM. […] Stock solutions of the peptides were prepared in buffer without added bovine serum albumin (BSA).

[1] = system: MDA-MB 231, HCT116, and A375 cells; assay: Peptide treatment after doxorubicin pre-treatment, cell number; assay type: cell-based; details: for sensitivity of cells to peptide with or without doxorubicin pre-treatment: 100 nM doxorubicin 24 hours, then 1, 3, 10 or 20 μM peptide, 6 days; for effect on reversibly non-growing or slow-growing cancer cells: after pre-treatment with 100 nM doxorubicin for 24 hours
Procedure: Replicate cultures of MDA-MB 231, HCT116, and A375 cells were pretreated with 100 nM doxorubicin for 24 hours, and then treated with 1 μM, 3 μM, 10 μM, or 20 μM CP-dn-CEBPB and CP-dn-CEBPD peptides, maintained for 6 days, and then assessed for cell number. The bar graphs of FIGS. 31A (MDA-MB 231, CP-dn-CEBPB), 31C (MDA-MB 231, CP-dn-CEBPBD, 31E (HCT116, CP-dn-CEBPBD), 31G (HCT116, CP-dn-CEBPD), 31I (A375, CP-dn-CEBPBB), and 31K (A375, CP-dn-CEBPBD) show relative cell numbers for each condition as compared to untreated controls. The line graphs of FIGS. 31B (MDA-MB 231, CP-dn-CEBPB), 31D (MDA-MB 231, CP-dn-CEBPBD), 31F (HCT116, CP-dn-CEBPB), 31H (HCT116, CP-dn-CEBPD), 31J (A375, CP-dn-CEBPB), and 31L (A375, CP-dn-CEBPBD) show the response as normalized in each case so that 100 represents the relative number of surviving cells that received the indicated level of doxorubicin, but no peptide treatment.

[2] = system: T98G, MDA-MB 231, and MCF7 cells; assay: Combination with paclitaxel, overall conclusion; assay type: cell-based; details: co-treatment, cell number or colony number
Procedure: (§1) Replicate cultures of T98G, MDA-MB 231, and MCF7 cells were treated with 1 nM or 5 nM paclitaxel and 3 μM, 10 μM, or 20 μM CP-dn-CEBPB and CP-dn-CEBPD peptides, maintained for 6 days, and then assessed for cell number. The bar graphs of FIGS. 26A (T98G, CP-dn-CEBPB), 26C (T98G, CP-dn-CEBPBD, 26E (MDA-MB-231, CP-dn-CEBPBD), 26G (MDA-MB-231, CP-dn-CEBPD), 26I (MCF7, CP-dn-CEBPBB), and 26K (MCF7, CP-dn-CEBPBD) show relative cell numbers for each condition as compared to untreated controls. The line graphs of FIGS. 26B (T98G, CP-dn-CEBPB), 26D (T98G, CP-dn-CEBPBD), 26F (MDA-MB-231, CP-dn-CEBPB), 26H (MDA-MB-231, CP-dn-CEBPD), 26J (MCF7, CP-dn-CEBPB), and 26L (MCF7 CP-dn-CEBPBD) show the response as normalized in each case so that 100 represents the relative number of surviving cells that received the indicated level of paclitaxel, but no peptide treatment. Calculated combination indices (CI) were as follows: MCF7: CI=0.41±0.04 for CP-dn-CEBPB; 0.44±0.04 for CP-dn-CEBPD; MDA-MB-231: 0.74±0.03 for CP-dn-CEBPB; 0.74±0.05 for CP-dn-CEBPD; T98G: CI=0.84±0.06 for CP-dn-CEBPB and 0.75±0.07 for CP-dn-CEBPD.
Replicate cultures of MDA-MB-231 cells in soft agar were treated with 0.1 nM or 0.5 nM 50 nM or 500 nM CP-dn-CEBPB and CP-dn-CEBPD peptides, maintained for 12 days, and then assessed for colony number. […]

[3] = system: HIEC-6 non-cancer human intestinal epithelial cells; assay: Cell number after peptide treatment, HIEC-6; assay type: cell-based; details: 6 days, 0 μM to 50 μM; stock without BSA
Procedure: Replicate cultures of HIEC-6 non-cancer human intestinal epithelial cells, MCF10A non-cancer human breast epithelial cells, or normal human astrocytes were exposed to CP-DN-CEBPB or CP-DN-CEBPD, for 6 days at doses of 0 μM to 50 μM. […] Stock solutions of the peptides were prepared in buffer without added bovine serum albumin (BSA).

A375 melanoma cells = assay: Cell number after peptide treatment, A375; assay type: cell-based; details: 6 days, 0 μM to 50 μM; stock without BSA
Procedure: (§2) Replicate cultures were exposed to the peptides the for 6 days at the indicated concentrations. Stock solutions of the peptides were prepared in buffer without added bovine serum albumin (BSA).

MDA-MB-231 cells = assay: Combination with paclitaxel, cell number, MDA-MB-231; assay type: cell-based; details: 1 nM or 5 nM paclitaxel and 3, 10 or 20 μM peptide, 6 days
Procedure: as §1

[4] = system: Mgpp3 murine proneural glioma cells; assay: Cell number after peptide treatment, Mgpp3; assay type: cell-based; details: 6 days, 0 μM to 50 μM; stock without BSA
Procedure: as §2

[5] = Solubility of peptide stock after dilution; assay type: physicochemical; details: 20 mM of each of arginine and glutamate added to peptide stock buffer
Procedure: In some implementations, the mixture of arg/glu may be added at a molarity of, or of about 5 mM, 10 mM, 15 mM, 20 mM, 25 mM, or 30 mM.

HCT116 cells = assay: Apoptotic nuclei, propidium iodide flow cytometry, HCT116; assay type: cell-based; details: 20 μM, 3 days, vs untreated cells
Procedure: MDA-MB-231, MCF7, HCT116 and T98G cancer cell lines were treated for 3 days with 20 μM CP-dn-CEBPB and CP-dn-CEBPD peptides from stock solutions prepared without additives. Cultures were stained with propidium iodide and assessed for proportion of cells with apoptotic nuclei by flow cytometry.

T98G cells = assay: Combination with paclitaxel, cell number, T98G; assay type: cell-based; details: 1 nM or 5 nM paclitaxel and 3, 10 or 20 μM peptide, 6 days
Procedure: as §1

Row | Sequence | morphology of human astrocytes (human astrocytes) | sensitivity of cells to peptide with or without doxorubicin pre-treatment [1] | effect on reversibly non-growing or slow-growing cancer cells [1] | kind of combined effect with paclitaxel [2] | number of HIEC-6 cells [3] | growth and survival of A375 cells (A375 melanoma cells) | combination index (CI) with paclitaxel (MDA-MB-231 cells) | growth and survival of Mgpp3 cells [4] | solubility after dilution to the concentration applied to cultured LN229 cells [5] | proportion of cells with apoptotic nuclei (HCT116 cells) | combination index (CI) with paclitaxel (T98G cells)
1 | RQIKIWFQNRRMKWKKLVELSAENEKLHQRVEQLTRDLAGLRQFFK [CP-DN-CEBPD] | did not affect the morphology | retain similar sensitivity | effective to treat reversibly non-growing or slow-growing cancer cells | synergistic effect | did not cause a dose-dependent decrease | decrease in growth and survival | 0.74±0.05 | decrease in growth and survival | maintained solubility | increased apoptotic cell death | 0.75±0.07
2 | RQIKIWFQNRRMKWKKLETQHKVLELTAENERLQKKVEQLSRELSTLRNLFKQL [CP-DN-CEBPB] | did not affect the morphology | retain similar sensitivity | effective to treat reversibly non-growing or slow-growing cancer cells | synergistic effect | did not cause a dose-dependent decrease | decrease in growth and survival | 0.74±0.03 | decrease in growth and survival | maintained solubility | increased apoptotic cell death | 0.84±0.06
